# Experimental data as given in US20230165831A1, “METHOD AND COMPOSITION FOR RENDERING CANCER CELLS SUSCEPTIBLE TO TREATMENT BY TARGETED ONCOGENETIC DRIVERS” (IMPACT BIOLIFE SCIENCE, INC., priority 2021, published 2023).
# Read-outs that look alike come from different tables or passages of the source.
# Columns and labels:
# [1] = tested on: pancreatic cancer line Capan-1 cells; test: CTG (CellTiter-Glo) cell viability assay, 6×6 combo matrix, 72 h, Capan-1; format: cell-based; conditions: for Relatively Cell inhibition of vehicle control(%): Capan-1
# Outline: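 Capan-1 cells were seeded at 3000 cells per well and incubated overnight at 37 °C/5% CO2. They were then treated with compounds in a 6×6 combination matrix for 72 h at 37 °C/5% CO2. Viability was read by CellTiter-Glo luminescence to assess inhibition and synergy.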
# [2] = tested on: breast cancer line T47D cells;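 note: luminescence read-out after 72 h at 37 °C under 5% CO2, with medium-only wells as blanks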
# Protocol: (§1) To measure the cell inhibition effect of compounds and synergy effect of test articles on ten (10) cell lines using standard CTG assay.
# (§2) 7) Using complete cell medium, adjust the volume of the suspension to achieve a cell concentration.
# (§3) b. A549, T47D, SK-OV-3, MKN45, SK-Hep-1, HT-29, Capan-1, 786-O and LNCaP cell line, for compounds and vehicle groups, the seeding density of cell lines is 3000 cells/80 µL per well. For blank groups, add 100 µL medium. For PBS groups, add 100 µL PBS.
# (§4) 8) Incubate the U87MG, A549, T47D, SK-OV-3, MKN45, SK-Hep-1, HT-29, Capan-1, 786-O and LNCaP cells overnight at 37° C./5% CO2.
# (§5) Solid compound of cis-platinum was solubilized in PBS to a stock solution of 3.333 mM.
# (§6) Final volume is 100 µL per well at this point.
# (§7) 5) Incubate the plates at 37° C./5% CO2 for 72 hours.
# (§8) 1) Incubate the plates at room temperature and away from light for 30 minutes.
# (§9) 3) Add 100 µL /well of CellTiter-Glo® Reagent in each well. Avoid light.
# (§10) 4) Mix contents for 2 minutes on an orbital shaker.
# (§11) 5) Incubate plate at room temperature for 10 minutes to stabilize the luminescent signal.
# 6) Read plates in Envision.
# [3] = tested on: prostate adenocarcinoma line LNCap cells;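 note: luminescence signal read after adding CellTiter-Glo reagent, with cells exposed to compounds for 72 h at 37 °C under 5% CO2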
# Protocol: as §1, §2, §3, §4, §5, §6, §7, §8, §9, §10, §11
# 6) Read plates in Envision.
# [4] = tested on: kidney cancer line 786-O cells;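 note: luminescence read-out after adding CellTiter-Glo reagent, with cells incubated at 37 °C under 5% CO2 during compound exposure, part of a ten cell line synergy study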
# Protocol: as §1, §2, §3, §4, §5, §6, §7, §8, §9, §10, §11
# 6) Read plates in Envision.
# [5] = tested on: Liver cancer line SK-HEP-1 cells;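 note: luminescent signal read after 72 h compound exposure at 37 °C under 5% CO2, with medium-only wells serving as blank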
# Protocol: as §1, §2, §3, §4, §5, §6, §7, §8, §9, §10, §11
# 6) Read plates in Envision.
# [6] = tested on: ovarian cancer line SK-OV3 cells;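 note: luminescent signal read after CellTiter-Glo addition, cells exposed to compounds for 72 h at 37 °C under 5% CO2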
# [7] = tested on: breast cancer line T47D cells; test: CTG (CellTiter-Glo) cell viability assay, 6×6 combo matrix, 72 h, T47D; conditions: Homo sapiens;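 note: luminescence read-out after 72 h at 37 °C under 5% CO2, with medium-only wells as blanks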
# Protocol: as §1, §2, §3, §4, §5, §6, §7, §8, §9, §10, §11
# 6) Read plates in Envision.
# [8] = tested on: colorectal cancer line HT29 cells; test: CTG (CellTiter-Glo) cell viability assay, 6×6 combo matrix, 72 h, HT29; conditions: for Relatively Cell inhibition of vehicle control(%): HT29;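 for all read-outs here: cells exposed to compounds for 72 hours at 37 °C under 5% CO2, then viability read as luminescence after adding CellTiter-Glo Reagent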
# Protocol: as §1, §2, §3, §4, §5, §6, §7, §8, §9, §10, §11
# 6) Read plates in Envision.
# [9] = tested on: glioblastoma line U87MG cells; test: CTG (CellTiter-Glo) cell viability assay, 6×6 combo matrix, 72 h, U87MG; conditions: Homo sapiens, U-87 MG;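 note: U87MG cells seeded at 2000 per well, exposed 72 h, viability read by CellTiter-Glo luminescence, inhibition expressed relative to vehicle-treated wells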
# [10] = tested on: gastric cancer line MKN45 cells; test: CTG (CellTiter-Glo) cell viability assay, 6×6 combo matrix, 72 h, MKN45;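 note: MKN45 cell viability read as CellTiter-Glo luminescence after 72 h culture at 37 °C under 5% CO2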
# Protocol: as §1, §2
# A549, T47D, SK-OV-3, MKN45, SK-Hep-1, HT-29, Capan-1, 786-O and LNCaP cell line, for compounds and vehicle groups, the seeding density of cell lines is 3000 cells/80 µL per well. For blank groups, add 100 µL medium. For PBS groups, add 100 µL PBS.
# as §4, §5, §6, §7, §8, §9, §10, §11
# 6) Read plates in Envision.
# [11] = tested on: kidney cancer line 786-O cells; test: CTG (CellTiter-Glo) cell viability assay, 6×6 combo matrix, 72 h, 786-O; conditions: for Relatively Cell inhibition of vehicle control(%): 786-O;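 for all read-outs here: luminescence read-out after adding CellTiter-Glo reagent, with cells incubated at 37 °C under 5% CO2 during compound exposure, part of a ten cell line synergy study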
# Protocol: as §1, §2, §3, §4, §5, §6, §7, §8, §9, §10, §11
# 6) Read plates in Envision.
# [12] = tested on: ovarian cancer line SK-OV3 cells; test: CTG (CellTiter-Glo) cell viability assay, 6×6 combo matrix, 72 h, SK-OV-3; conditions: for Relatively Cell inhibition of vehicle control(%): SK-OV-3;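 for all read-outs here: luminescent signal read after CellTiter-Glo addition, cells exposed to compounds for 72 h at 37 °C under 5% CO2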
# [13] = tested on: Liver cancer line SK-HEP-1 cells; test: CTG (CellTiter-Glo) cell viability assay, 6×6 combo matrix, 72 h, SK-Hep-1; conditions: Homo sapiens;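 note: luminescent signal read after 72 h compound exposure at 37 °C under 5% CO2, with medium-only wells serving as blank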
# Protocol: as §1, §2, §3, §4, §5, §6, §7, §8, §9, §10, §11
# 6) Read plates in Envision.
# [14] = Homo sapiens, HT-29, read-out: Relatively Cell inhibition of vehicle control(%)
# [15] = Homo sapiens, 786-0, read-out: Relatively Cell inhibition of vehicle control
structure (smiles),measurement,setting,value
CC[C@@]1(O)C(=O)OCc2c1cc1n(c2=O)Cc2cc3c(CN(C)C)c(O)ccc3nc2-1 [topotecan],inhibition at […],"[1]; Homo sapiens, CAPAN-1, topotecan 16 nM only, read-out: Relatively Cell inhibition of vehicle control",21%
same,inhibition at 0.08 µM,"[1]; Homo sapiens, CAPAN-1, topotecan 80 nM only, read-out: Relatively Cell inhibition of vehicle control",53.9%
same,inhibition at 0.4 µM,"[1]; Homo sapiens, CAPAN-1, topotecan 400 nM only, read-out: Relatively Cell inhibition of vehicle control",74.3%
same,inhibition at 2 µM,"[1]; Homo sapiens, CAPAN-1, topotecan 2000 nM only, read-out: Relatively Cell inhibition of vehicle control",88.4%
same,inhibition at 10 µM,"[1]; Homo sapiens, CAPAN-1, topotecan 10000 nM only, read-out: Relatively Cell inhibition of vehicle control",78.1%
same,Relatively Cell inhibition of vehicle control(%),[1]; Top 16 nM only,13.17%
same,Relatively Cell inhibition of vehicle control(%),[1]; Top 80 nM only,54.35%
same,Relatively Cell inhibition of vehicle control(%),[1]; Top 400 nM only,74.56%
same,Relatively Cell inhibition of vehicle control(%),[1]; Top 2000 nM only,88.92%
same,Relatively Cell inhibition of vehicle control(%),[1]; Top 10000 nM only,81.26%
same,inhibition,[2],2.49%
same,inhibition,[3],15.4%
same,inhibition,[4],2.61%
same,inhibition,[5],-0.38%
same,inhibition,[6],23%
same,inhibition at […],"[7]; read-out: Relatively Cell inhibition of vehicle control(%), T47D, 16 nM topotecan only (myricetin 0)",12.5%
same,inhibition at 0.08 µM,"[7]; read-out: Relatively Cell inhibition of vehicle control(%), T47D, 80 nM topotecan only (LB-1 0)",29.6%
same,inhibition at 0.08 µM,"[7]; read-out: Relatively Cell inhibition of vehicle control(%), T47D, 80 nM topotecan only (myricetin 0)",36.9%
same,inhibition at 0.4 µM,"[7]; read-out: Relatively Cell inhibition of vehicle control(%), T47D, 400 nM topotecan only (LB-1 0)",45.7%
same,inhibition at 0.4 µM,"[7]; read-out: Relatively Cell inhibition of vehicle control(%), T47D, 400 nM topotecan only (myricetin 0)",53.9%
same,inhibition at 2 µM,"[7]; read-out: Relatively Cell inhibition of vehicle control(%), T47D, 2000 nM topotecan only (LB-1 0)",58.3%
same,inhibition at 2 µM,"[7]; read-out: Relatively Cell inhibition of vehicle control(%), T47D, 2000 nM topotecan only (myricetin 0)",62.7%
same,inhibition at 10 µM,"[7]; read-out: Relatively Cell inhibition of vehicle control(%), T47D, 10000 nM topotecan only (LB-1 0)",57.7%
same,inhibition at 10 µM,"[7]; read-out: Relatively Cell inhibition of vehicle control(%), T47D, 10000 nM topotecan only (myricetin 0)",61.9%
same,inhibition at 0.08 µM,[8]; [14],26.1%
same,inhibition at 0.4 µM,[8]; [14],64.8%
same,inhibition at 2 µM,[8]; [14],93.2%
same,inhibition at 10 µM,[8]; [14],79.4%
same,Relatively Cell inhibition of vehicle control(%),[8]; Top 16 nM only (Myr 0),11.50%
same,Relatively Cell inhibition of vehicle control(%),[8]; Top 80 nM only (Myr 0),21.57%
same,Relatively Cell inhibition of vehicle control(%),[8]; Top 400 nM only (Myr 0),71.12%
same,Relatively Cell inhibition of vehicle control(%),[8]; Top 2000 nM only (Myr 0),94.54%
same,Relatively Cell inhibition of vehicle control(%),[8]; Top 10000 nM only (Myr 0),82.42%
same,inhibition at […],"[9]; read-out: Relatively Cell inhibition of vehicle control(%), topotecan 16 nM only",15.6%
same,inhibition at […],"[9]; read-out: Relatively Cell inhibition of vehicle control(%), topotecan 16 nM only (myricetin plate)",11.4%
same,inhibition at 0.08 µM,"[9]; read-out: Relatively Cell inhibition of vehicle control(%), topotecan 80 nM only",49.3%
same,inhibition at 0.08 µM,"[9]; read-out: Relatively Cell inhibition of vehicle control(%), topotecan 80 nM only (myricetin plate)",51.6%
same,inhibition at 0.4 µM,"[9]; read-out: Relatively Cell inhibition of vehicle control(%), topotecan 400 nM only",64.1%
same,inhibition at 0.4 µM,"[9]; read-out: Relatively Cell inhibition of vehicle control(%), topotecan 400 nM only (myricetin plate)",66.2%
same,inhibition at 2 µM,"[9]; read-out: Relatively Cell inhibition of vehicle control(%), topotecan 2000 nM only",73.5%
same,inhibition at 2 µM,"[9]; read-out: Relatively Cell inhibition of vehicle control(%), topotecan 2000 nM only (myricetin plate)",76.3%
same,inhibition at 10 µM,"[9]; read-out: Relatively Cell inhibition of vehicle control(%), topotecan 10000 nM only",82.1%
same,inhibition at 10 µM,"[9]; read-out: Relatively Cell inhibition of vehicle control(%), topotecan 10000 nM only (myricetin plate)",83.4%
same,Relatively Cell inhibition of vehicle control(%),[10]; Top 16 nM only (Myr 0),27.49%
same,Relatively Cell inhibition of vehicle control(%),[10]; Top 80 nM only (LB-1 0),48.98%
same,Relatively Cell inhibition of vehicle control(%),[10]; Top 80 nM only (Myr 0),53.47%
same,Relatively Cell inhibition of vehicle control(%),[10]; Top 400 nM only (LB-1 0),84.58%
same,Relatively Cell inhibition of vehicle control(%),[10]; Top 400 nM only (Myr 0),85.99%
same,Relatively Cell inhibition of vehicle control(%),[10]; Top 2000 nM only (LB-1 0),91.55%
same,Relatively Cell inhibition of vehicle control(%),[10]; Top 2000 nM only (Myr 0),92.29%
same,Relatively Cell inhibition of vehicle control(%),[10]; Top 10000 nM only (LB-1 0),89.36%
same,Relatively Cell inhibition of vehicle control(%),[10]; Top 10000 nM only (Myr 0),91.07%
same,inhibition at 0.08 µM,[11]; [15],68.1%
same,inhibition at 0.4 µM,[11]; [15],82.5%
same,inhibition at 2 µM,[11]; [15],91.7%
same,inhibition at 10 µM,[11]; [15],93.9%
same,Relatively Cell inhibition of vehicle control(%),[11]; Top 80 nM only (LB-1 0),68.14%
same,Relatively Cell inhibition of vehicle control(%),[11]; Top 400 nM only (LB-1 0),83.15%
same,Relatively Cell inhibition of vehicle control(%),[11]; Top 2000 nM only (LB-1 0),91.65%
same,Relatively Cell inhibition of vehicle control(%),[11]; Top 10000 nM only (LB-1 0),93.59%
same,inhibition at 1 µM,"[12]; Homo sapiens, SK-OV-3, read-out: inhibition rate",93.9%
same,Relatively Cell inhibition of vehicle control(%),[12]; Top 16 nM only (myricetin matrix),21.67%
same,Relatively Cell inhibition of vehicle control(%),[12]; Top 80 nM only (LB-1 matrix),68.74%
same,Relatively Cell inhibition of vehicle control(%),[12]; Top 80 nM only (myricetin matrix),67.77%
same,Relatively Cell inhibition of vehicle control(%),[12]; Top 400 nM only (LB-1 matrix),83.70%
same,Relatively Cell inhibition of vehicle control(%),[12]; Top 400 nM only (myricetin matrix),82.50%
same,Relatively Cell inhibition of vehicle control(%),[12]; Top 2000 nM only (LB-1 matrix),90.55%
same,Relatively Cell inhibition of vehicle control(%),[12]; Top 2000 nM only (myricetin matrix),90.97%
same,Relatively Cell inhibition of vehicle control(%),[12]; Top 10000 nM only (myricetin matrix),94.18%
same,inhibition at […],"[13]; SK-HEP1, read-out: Relatively Cell inhibition of vehicle control, topotecan 16 nM only (myricetin table)",-4.24%
same,inhibition at 0.08 µM,"[13]; SK-HEP1, read-out: Relatively Cell inhibition of vehicle control, topotecan 80 nM only (LB-1 table)",9.52%
same,inhibition at 0.08 µM,"[13]; SK-HEP1, read-out: Relatively Cell inhibition of vehicle control, topotecan 80 nM only (myricetin table)",16%
same,inhibition at 0.4 µM,"[13]; SK-HEP1, read-out: Relatively Cell inhibition of vehicle control, topotecan 400 nM only (LB-1 table)",35.4%
same,inhibition at 0.4 µM,"[13]; SK-HEP1, read-out: Relatively Cell inhibition of vehicle control, topotecan 400 nM only (myricetin table)",37.7%
same,inhibition at 2 µM,"[13]; SK-HEP1, read-out: Relatively Cell inhibition of vehicle control, topotecan 2000 nM only (LB-1 table)",70.3%
same,inhibition at 2 µM,"[13]; SK-HEP1, read-out: Relatively Cell inhibition of vehicle control, topotecan 2000 nM only (myricetin table)",74.2%
same,inhibition at 10 µM,"[13]; SK-HEP1, read-out: Relatively Cell inhibition of vehicle control, topotecan 10000 nM only (LB-1 table)",98.6%
same,inhibition at 10 µM,"[13]; SK-HEP1, read-out: Relatively Cell inhibition of vehicle control, topotecan 10000 nM only (myricetin table)",99.1%
same,inhibition at 1 µM,"[13]; SK-HEP1, read-out: inhibition rate, 1000 nM topotecan only (footnote of the LB-1 table)",98.6%
